Experimental data published in patent US6979447B2, “Immunomodulation and effect on cell processes relating to serotonin family receptors” (Philadelphia Health and Education Corporation, priority 2001, dated 2005).
Entries after “also recorded” stand apart in the source; their conditions may differ.

Assays:
T cells = test: Macrophage media-conditioning study, T cell proliferation in conditioned media; assay type: cell-based, mouse; conditions: for conditioning effect of the media: uptake inhibitor present during the conditioning phase
From the text: Femur and tibia bones were harvested from the hind limbs of 6-8 week old C57/B6J mice (Jackson Laboratories, Bar Harbor, Me.). The distal ends of the bones were removed, exposing the marrow plugs. Using a 22 gauge needle (Becton-Dickinson, Lincoln Park, N.J.), the marrow cavities were flushed with RPMI medium supplemented 2% FBS. The cell suspension was then passed through a nylon mesh to remove stromal cells. Red blood cells were lysed using ACK (ammonium chloride potassium lysis buffer; 0.15 M NH4Cl, 10 mM KHCO3, 0.1 mM EDTA) buffer as described in Current Protocols in Immunology (Section 3.1.5).
Cells were resuspended at 10^7 cells/ml in RPMI medium, containing 10% FBS, 500 units/ml of murine M-CSF, and 3 ml/well of cell suspension were plated onto a 6 well flat-bottom plate. […] Cells were grown for 4 days. Spleens of 6-8 week old BALB/c/BYJ were harvested, and single cell suspension was made. Red blood cells were removed as described above. Adherent cells were removed by 1.5 hour incubation on a nylon wool column, and suspension cells were collected. The BALB/c cells were then plated over the C57/B6 cells (see supra), at 1.2×10^6 cells/well, in 0.65 ml (bringing brought the final volume of each well to 1.3 ml). The cells were grown for 2.5 days. When appropriate, fluoxetine or BCH were added at the beginning of this incubation. The medium from the mixed cell cultures was harvested, centrifuged at 1200 RPM to remove cells, and filtered using a 0.22 microns syringe filter (Corning). This filtered medium was used to support another round of cell proliferation.

human lymphocytes [1] = test: Human mitogenic (ConA) stimulation, 3H-thymidine incorporation; assay type: cell-based; conditions: for effect on activation / proliferative response: ConA 5 μg/ml, harvested 72 hours, FIGS. 7A, 8A, 9A; for effect on stimulation of ConA-stimulated human PBLs: reagents at 400 μM, time course, FIG. 4
Description: Blood from healthy volunteers was drawn using venipuncture, using Vacutainer collection sets and heparinized collection vials. The blood was diluted 1:1 using HBSS to a total volume of 30 ml in 50 ml conical tubes (Fisher Scientific, Co., Pittsburgh, Pa.). […] Cells from the buffy coats were collected and the residual Histopaque was washed away using repeated centrifugations in HBSS. After washes, cells were resuspended at 5 million cells per ml in RPMI, supplemented with 2% FBS. To remove adherent cells, the suspension was plated onto a 6 well flat-bottom plate (Corning Costar), 3 ml/well, and incubated for 2 hours at 37° C., 5% CO2. Non-adherent cells were harvested after this incubation, were counted and resuspended in RPMI supplemented with 10% human serum (Sigma).
All drugs were pre-plated before the cell suspension was added onto each well of a 96-well round-bottom plate. All experimental conditions were assayed in at least triplicate. Cells suspended in RPMI supplemented with 10% human serum were plated at 100,000 cells per well to a final volume of 200 μl. […] Control samples received no ConA stimulation. The plates were incubated at 37° C. and 5% CO2. One microCurie of tritiated thymidine was added to each well after 60 hours, and the plates were harvested 12 hours later.

human lymphocytes [2] = test: Human mixed lymphocyte reaction (allogeneic stimulation); assay type: cell-based; conditions: allogeneic stimulation, harvested 120 hours, FIGS. 7B, 8B, 9B
From the text: Blood from two healthy, non-related, donors was taken as described above. Peripheral blood mononuclear cells were isolated as described previously elsewhere. The adherent cells were separated from the suspension cells as described previously for both donors. Suspension cells from both donors (donors A and B) were used as responders. The remaining adherent cells from each of the donors were used as stimulators against a different donor (suspension A against adherent B and adherent A against suspension B). The stimulator cells were irradiated at 35 Gy. Drugs were pre-plated onto 96 well, U-bottom plates in triplicate. 200,000 “stimulator” cells in RPMI supplemented with 10% human serum were then plated in each well. 200,000 “responder” cells in the same medium were then plated over stimulators to a final volume of 200 μl/well. Background controls received either no stimulator cells, or no responder cells. The plates were incubated at 37° C. and 5% CO2. 1 μCi of tritiated thymidine was added to each well after 4.5 days, and the plates were harvested 12 hours later.

RPMI-8226 cells = test: Hematoxylin-eosin / bis-benzamide staining of RPMI-8226 cytospins; assay type: cell-based, human; conditions: 2 μM, 9 hour treatment, FIG. 28
Description: 2.0×10^5 RPMI-8226 cells were cultured, in 6-well culture plates, in the presence of the indicated drug concentrations, in a total of 5 mL RPMI-1640 supplemented with 10% FBS. Each well was harvested in its entirety and divided into two identical samples for cytospins.
1.0×10^5 RPMI-8226 cells from each treatment group were loaded into Cyto-funnels and centrifuged at 500 rpm for 4 minutes with medium acceleration. Slides were then fixed through graded methanol in PBS (100%, 5 minutes; 80%, 5 minutes; 50%, 5 minutes), washed for 5 minutes in PBS and stored in PBS at 4° C. until stained.
Cytospun slides were stained with Hematoxylin and Eosin, followed by the nuclear stain, bis-benzamide, rinsed and mounted according to standard staining protocols. Slides were visualized under both brightfield and fluorescent light to generate matched images of the same slide field (see, e.g., FIGS. 28 and 29).

[3] = test system: allogeneic CTL response to P815 cells; test: Murine allograft model, CTL killing of P815 target cells by splenocytes; assay type: in vivo, C57BL/6J mice; conditions: for effect on allogeneic killing response: tail vein 300 μg/injection on days 5 and 7, sacrificed day 14, FIGS. 18A, 18B; for effect on allograft (CTL) response: tail vein bolus 200 μg/injection on days 6 and 8, sacrificed day 14, FIG. 13
Description: The in vivo validation screen used was an art-recognized murine allogeneic rejection model as described in Zhan et al., 2000. For this assay, a complete MHC miss-match system was employed wherein 5×10^6 P815 cells ([H-2^d] DBA/2 mastocytoma) were injected into the peritoneal cavity of C57BL/6J (H-2^b) mice on day 0 of the experiment. These mice typically generate a strong cytotoxic T lymphocyte (CTL) reaction in response to P815 cells. Following the initial P815 cell inoculation, the mice were allowed to develop a CTL response (this usually takes about 10-14 days). […] Mice were then sacrificed on day 14 of the experiment as indicated in the figures; and the allogeneic CTL response was assayed as described previously (Tretiakova et al., 2000, Nature Biotechnology 18:984-988). The primary spleen cells from the treated and untreated animals were used in the direct CTL readout. Freshly obtained primary spleen cells were incubated with the [^3H] labeled target cells (P815 cells) at 100:1, 50:1, 25:1, and 12.5:1 ratios for 3.5 hours at 37° C. and harvested using a PHD harvester. The percentage of specific killing was determined using the formula % kill=(S−E)/S, where S is the amount of the DNA retained by the target cells in the absence of the effector cells and E is the amount of retained DNA in the presence of the effector cells (expressed in counts per minute; cpm).
This is an art-recognized model of allograft […] rejection based on that described by […]. (2000). In this model, there is a complete MHC mismatch between the P815 cells (H-2^d) and the C57BL6 mouse (H-2^b), thus ensuring an aggressive immune response. The data disclosed in FIG. 13, depicts results of experiments that included 6 treatment groups, each group consisting of three mice. Each mouse received 5×10^6 P815 cells injected into the peritoneal cavity on day 0 of the study. The first group was an untreated control group, which was used to establish the baseline response of the mice against the allogeneic stimulus. These mice, without any further treatments, were sacrificed, as were the other treatment groups, on day 14 of the study and their splenocytes assayed for target-specific killing of the P815 cells.
The average kill observed for the untreated group was about 45% at an effector to target ratio of 100:1. […] The timing of the drug administration was selected to ensure that the T cells were fully activated prior to the drug treatment. The third group was treated with propanolol, a 5HT-1 antagonist. All of the 5HT receptor antagonist-treated groups were treated as described for the risperidone-treated group. The fourth group was treated chronically with CyclosporinA. The Cyclosporin A was administered ip at a dosage of 100 μg/injection starting two days prior to the onset of the study, i.e., at day-2, and the injections were continued on a daily basis for the duration of the study.
Finally, studies conducted in vivo using the CD8-dependent allograft rejection model, in which P815 cells (a rapidly growing cell line taken from a mastocytoma in a DBA mouse), were expanded and used to create a robust rejection response in a C57BL6 mouse. In this study the mice received 5×10^6 P815 cells injected into their peritoneal cavity on day 0 of the study. The first group was an untreated control group (naïve animals), used to acquire the baseline response of the mice against the allogeneic stimulus. The positive controls were treated with the allogeneic cells without any further treatments. These animals were used to assess the induced allogeneic response against the P815 cells.
All treatment groups were sacrificed on day 14 of the study and their splenocytes assayed for target-specific killing of the P815 cells (the averaged overall kill observed for the positive control group was about 45% at an effector to target ratio of 100:1). The serotonin-specific compounds were administered via tail vein injection (300 μg/injection) on days 5 and 7 of the study. […]

[4] = highest ConA dose, 10 μg/ml, harvest 72 hours, FIG. 5C

SMILES: NC1(C(=O)O)CC2CCC1C2 (centres unmarked) [2-amino 2-norbornane carboxylic acid]
- conditioning effect of the media (T cells): can be prevented

SMILES: OC(CN1CCN(c2cccc(Cl)c2)CC1)C(c1ccccc1)c1ccccc1 (centres unmarked) [BRL 15572]
- effect on activation / proliferative response (human lymphocytes [1]): no effect upon the proliferative response
- effect on activation / proliferative response (human lymphocytes [2]): no effect upon the proliferative response

SMILES: N[C@@H](Cc1c[nH]c2ccccc12)C(=O)O [tryptophan]
- relief of phenelzine-induced inhibition (human lymphocytes [1]; ConA 1 μg/ml, added to phenelzine-inhibited cells, 100 μM each, FIG. 6): had very little effect
- effect on proliferative response (human lymphocytes [1]; ConA 1 μg/ml, reagent 100 μM, FIG. 6): enhanced the proliferative response
- effect on proliferative response (human lymphocytes [1]; [4]): no enhancement at the highest level
- effect on stimulation of ConA-stimulated human PBLs (human lymphocytes [1]): enhanced the maximal stimulation of the cells
- effect on proliferative response (human lymphocytes [1]; weakest signal strength, 0.1 μg/ml ConA, harvest 72 hours, FIG. 5A): augments the proliferative response
- restoration of T cell proliferation in conditioned media (T cells; added to conditioned media, FIG. 1): had no effect

SMILES: CC[C@@]1(O)C(=O)OCc2c1cc1n(c2=O)Cc2cc3ccccc3nc2-1 [camptothecin]
- chromatin / nuclear morphology (RPMI-8226 cells): Extensive chromatin condensation and nuclear fragmentation

SMILES: COc1ccccc1N1CCN(CCN(C(=O)C2CCCCC2)c2ccccn2)CC1 [WAY 100635]
- in vitro effect on activation response / helper T cell proliferation (summary statement) (human lymphocytes [1]): significantly inhibits the activation response

SMILES: CC(O)C(C)OC(=O)[C@@H]1C[C@@H]2c3cccc4c3c(cn4C(C)C)C[C@H]2N(C)C1 (some centres unmarked) [LY 53857]
- effect on activation / proliferative response (human lymphocytes [1]): inhibit the activation response at pharmacologically relevant concentrations
- effect on activation / proliferative response (human lymphocytes [2]): inhibit the activation response at pharmacologically relevant concentrations

SMILES: N[C@@H](Cc1c[nH]c2ccc(O)cc12)C(=O)O [5-hydroxy-tryptophan]
- effect on proliferation response (human lymphocytes [1]; 25 μM, in the absence of PCPA, FIG. 3): significantly enhanced the proliferation response
- reversal of PCPA inhibition of the mitogenic response (human lymphocytes [1]; added to PCPA-inhibited cells, FIG. 3): this inhibition can be reversed

SMILES: N[C@@H](Cc1ccc(Cl)cc1)C(=O)O (racemic) [PCPA, para-chlorophenylalanine]
- effect on mitogenic response (human lymphocytes [1]; ConA 1 μg/ml, human PBLs, FIG. 3): inhibits the mitogenic response in a dose-dependent manner

SMILES: CNCCC(Oc1ccc(C(F)(F)F)cc1)c1ccccc1 (centres unmarked) [fluoxetine]
- conditioning effect of the media (T cells): can be prevented

SMILES: Cn1ccc2cc3c(cc21)CCN3C(=O)Nc1cccnc1 [SB 206553]
- effect on activation / proliferative response (human lymphocytes [1]): inhibit the activation response at pharmacologically relevant concentrations
- in vitro effect on activation response / helper T cell proliferation (summary statement) (human lymphocytes [1]): immediate cessation of proliferation
- effect on allogeneic killing response [3]: striking
- effect on allograft (CTL) response [3]: inhibited the allograft response to varying degrees
- individual mouse responses within treated group ([3]; three treated mice, FIG. 14): Two of the treated mice had the allogeneic response completely suppressed; also recorded: Two of the three treated mice inhibited the allograft response to a degree equivalent to that observed in the Cyclosporin A-treated animals
- effect on activation / proliferative response (human lymphocytes [2]): inhibit the activation response at pharmacologically relevant concentrations

SMILES: CC[C@@H](CO)NC(=O)[C@@H]1C=C2c3cccc4c3c(cn4C)C[C@H]2N(C)C1 [methysergide]
- effect on allogeneic killing response [3]: complete inhibition of the induced killing response; also recorded: abrogated the allogeneic killing response; also recorded: inhibition profile was striking
- effect on allograft (CTL) response [3]: inhibited the allograft response to varying degrees

SMILES: NNCCc1ccccc1 [phenelzine]
- drug concentration giving significant inhibition (human lymphocytes [1]; ConA 0.1 and 1 μg/ml, FIGS. 5A and 5B): 10 to 100 µM
- drug concentration giving full inhibition (human lymphocytes [1]; higher ConA stimulation (10 μg/ml)): 100 to 400 µM
- effect on proliferative response (human lymphocytes [1]; [4]): no inhibition was observed
- effect on stimulation of ConA-stimulated human PBLs (human lymphocytes [1]): completely shut down the stimulation
